According to ChEMBL document CHEMBL5154929, “Optimization of the Natural Product Calothrixin A to Discover Novel Dual Topoisomerase I and II Inhibitors with Improved Anticancer Activity” (J Med Chem, 2022):
pIC50: −log10 of the molar value.

Assays:
SH-SY5Y = test: Cytotoxicity against human SH-SY5Y cells expressing low level of topoisomerase I/II measured after 72 hrs by MTT assay; assay type: functional, cell-based
MDA-MB-231 = test: Cytotoxicity against human MDA-MB-231 cells expressing high level of topoisomerase I/II measured after 72 hrs by MTT assay; assay type: functional, cell-based; conditions: MDA-MB-231, 72 h
HCT-116 = test: Cytotoxicity against human HCT-116 cells expressing high level of topoisomerase I/II measured after 72 hrs by MTT assay; assay type: functional, cell-based; conditions: HCT-116, 72 h
MCF7 = test: Cytotoxicity against human MCF7 cells expressing high level of topoisomerase I/II measured after 72 hrs by MTT assay; assay type: functional, cell-based; conditions: MCF7, 72 h
A-375 = test: Cytotoxicity against human A-375 cells expressing high level of topoisomerase I/II measured after 72 hrs by MTT assay; assay type: functional, cell-based; conditions: A-375, 72 h
A549 = test: Cytotoxicity against human A549 cells expressing high level of topoisomerase I/II measured after 72 hrs by MTT assay; assay type: functional, cell-based; conditions: A549, 72 h
[1] = Cytotoxicity against human L02 cells measured after 72 hrs by MTT assay; assay type: toxicity, cell-based
[2] = Cytotoxicity against human HEK293T cells measured after 72 hrs by MTT assay; assay type: toxicity, cell-based, HEK-293T

Structure (SMILES)	pIC50 (SH-SY5Y)	pIC50 (MDA-MB-231)	pIC50 (HCT-116)	pIC50 (MCF7)	pIC50 (A-375)	pIC50 (A549)	IC50 at 72 h [1]	IC50 at 72 h [2]
CN1CCN(CCCCCCn2c3c(c4ccccc42)C(=O)c2c[n+]([O-])c4ccccc4c2C3=O)CC1	6.04	5.62	5.54	6.40	6.20	6.48	3.8 µM	5.8 µM
O=C1c2c[n+]([O-])c3ccccc3c2C(=O)c2c1c1ccccc1n2CCN1CCCCC1	5.73	5.98	6.11	6.21	6.74	5.97	1.05 µM	
O=C1c2c[n+]([O-])c3ccccc3c2C(=O)c2c1c1ccccc1n2CCCCCN1CCOCC1	6.52	6.48	6.52	6.59	6.64	6.89	0.33 µM	0.15 µM
CN(C)CCCn1c2c(c3ccccc31)C(=O)c1c[n+]([O-])c3ccccc3c1C2=O	6.48	6.31	6.46	6.62	6.39	6.51	0.49 µM	0.13 µM
O=C1c2c[n+]([O-])c3ccccc3c2C(=O)c2c1c1ccccc1n2CCCN1CCC(O)CC1	6.89	6.55	6.72	6.72	6.62	6.46	0.12 µM	0.17 µM
O=C1c2c[n+]([O-])c3ccccc3c2C(=O)c2c1c1ccccc1n2Cc1cn(CC(O)CO)nn1 (configuration not stated)	< 6.00	5.89	6.60	5.95	6.36	6.06	1.07 µM	0.76 µM
O=C1c2c[n+]([O-])c3ccccc3c2C(=O)c2c1c1ccccc1n2Cc1cn(C[C@@H](O)CO)nn1	< 6.30	6.17	6.72	6.22	6.85	6.41	0.49 µM	2.03 µM
O=C1c2c[n+]([O-])c3ccccc3c2C(=O)c2c1c1ccccc1n2Cc1cn([C@@H]2O[C@H](CO)[C@@H](O)[C@H](O)[C@H]2O)nn1	6.06	6.19	6.89	6.23	6.64	6.25	0.42 µM	0.94 µM
CC[C@@]1(O)C(=O)OCc2c1cc1n(c2=O)Cc2cc3ccccc3nc2-1 [CAMPTOTHECIN]	6.21	6.31	6.22	6.46	6.18	6.43	0.14 µM	0.69 µM
CC1(C)OC[C@H](Cn2cc(Cn3c4c(c5ccccc53)C(=O)c3c[n+]([O-])c5ccccc5c3C4=O)nn2)O1	6.09	6.28	6.89	6.28	6.74	6.47	0.47 µM	0.1 µM
CC(=O)OC[C@@H]1OC(C)(C)O[C@H]1Cn1cc(Cn2c3c(c4ccccc42)C(=O)c2c[n+]([O-])c4ccccc4c2C3=O)nn1	< 6.00	< 6.00	6.24	< 6.00	6.37	< 6.00	1.06 µM	10.2 µM
CC1(C)OC[C@@H](Cn2cc(Cn3c4c(c5ccccc53)C(=O)c3c[n+]([O-])c5ccccc5c3C4=O)nn2)O1	< 6.00	< 6.00	6.47	< 6.00	6.35	5.33	2.9 µM	6.02 µM
O=C1c2c[n+]([O-])c3ccccc3c2C(=O)c2c1c1ccccc1n2CCN1CCOCC1	5.69	5.69	5.89	5.76	6.09	6.25	1.73 µM	
O=C1c2c[n+]([O-])c3ccccc3c2C(=O)c2c1c1ccccc1n2CCCCN1CCN(CCO)CC1	6.35	6.13	6.48	6.42	6.33	6.70	0.88 µM	
CCCCN1CCN(CCCCn2c3c(c4ccccc42)C(=O)c2c[n+]([O-])c4ccccc4c2C3=O)CC1	5.21	6.05	5.72	5.16	5.67	6.26	5.69 µM	
CCOC(=O)[C@@H]1OC(C)(C)O[C@H]1Cn1cc(Cn2c3c(c4ccccc42)C(=O)c2c[n+]([O-])c4ccccc4c2C3=O)nn1	< 6.00	5.98	6.11	< 6.00	6.24	< 6.00	0.84 µM	0.13 µM

Structure (SMILES)	pIC50 (SH-SY5Y)	pIC50 (MDA-MB-231)	pIC50 (HCT-116)	pIC50 (MCF7)	pIC50 (A-375)	pIC50 (A549)	IC50 at 72 h [1]	IC50 at 72 h [2]
O=C1c2c[n+]([O-])c3ccccc3c2C(=O)c2c1c1ccccc1n2CCN1CCCC1	6.28	6.20	6.57	6.49	6.37	6.39	0.93 µM	
CC(=O)OC[C@H]1O[C@@H](n2cc(Cn3c4c(c5ccccc53)C(=O)c3c[n+]([O-])c5ccccc5c3C4=O)nn2)[C@H](OC(C)=O)[C@@H](OC(C)=O)[C@@H]1OC(C)=O	6.19	6.40	6.12	6.48	6.25	6.54	0.27 µM	2.43 µM
CCCN1CCN(CCCCn2c3c(c4ccccc42)C(=O)c2c[n+]([O-])c4ccccc4c2C3=O)CC1	5.40	5.53	6.10	5.89	6.06	6.49	6.83 µM	
O=C1c2c[n+]([O-])c3ccccc3c2C(=O)c2c1c1ccccc1n2CCCCN1CCCCC1	6.64	6.21	6.70	6.82	6.72	6.82	0.61 µM	
CN(C)CCn1c2c(c3ccccc31)C(=O)c1c[n+]([O-])c3ccccc3c1C2=O	6.77	6.80	6.96	6.70	6.85	6.70	0.75 µM	
CN(C)CCCCCn1c2c(c3ccccc31)C(=O)c1c[n+]([O-])c3ccccc3c1C2=O	6.43	6.62	6.33	6.70	6.25	6.68	0.24 µM	0.07 µM
CC(=O)OC[C@H]1O[C@H](n2cc(Cn3c4c(c5ccccc53)C(=O)c3c[n+]([O-])c5ccccc5c3C4=O)nn2)C[C@@H]1OC(C)=O	< 6.00	5.92	6.42	5.89	6.26	5.94	2.78 µM	0.12 µM
CC(=O)OC[C@H]1O[C@@H](n2cc(Cn3c4c(c5ccccc53)C(=O)c3c[n+]([O-])c5ccccc5c3C4=O)nn2)C[C@@H]1OC(C)=O	< 6.30	6.26	6.92	6.26	6.85	5.74	0.35 µM	2.54 µM
O=C1c2c[n+]([O-])c3ccccc3c2C(=O)c2c1c1ccccc1n2CCCCn1ccnc1	6.89	6.68	6.62	6.89	6.46	6.77	0.15 µM	0.28 µM
CC1(C)OCC(Cn2cc(Cn3c4c(c5ccccc53)C(=O)c3c[n+]([O-])c5ccccc5c3C4=O)nn2)O1 (configuration not stated)	6.64	6.64	7.15	6.54	6.48	7.10	0.12 µM	5.51 µM
CC(=O)OC[C@H]1O[C@H](n2cc(Cn3c4c(c5ccccc53)C(=O)c3c[n+]([O-])c5ccccc5c3C4=O)nn2)[C@H](OC(C)=O)[C@@H]1OC(C)=O	6.29	6.60	6.82	6.17	6.16	6.37	0.09 µM	0.21 µM
CN1CCN(CCCn2c3c(c4ccccc42)C(=O)c2c[n+]([O-])c4ccccc4c2C3=O)CC1	6.25	6.41	6.25	6.66	6.33	6.85	0.23 µM	0.17 µM
O=C1c2c[n+]([O-])c3ccccc3c2C(=O)c2c1c1ccccc1n2Cc1cn(C[C@H](O)CO)nn1	< 6.00	5.88	6.40	< 6.00	6.46	5.99	1.13 µM	8.88 µM
O=C1c2c[n+]([O-])c3ccccc3c2C(=O)c2c1c1ccccc1n2CCCN1CCOCC1	6.23	6.26	6.39	6.35	6.48	6.40	0.55 µM	0.17 µM
O=C1c2c[n+]([O-])c3ccccc3c2C(=O)c2c1c1ccccc1n2CCCCN1CCOCC1	6.77	6.62	7.05	6.89	6.77	7.05	0.51 µM	
O=C1c2c[n+]([O-])c3ccccc3c2C(=O)c2c1c1ccccc1n2Cc1cn([C@H]2O[C@H](CO)[C@@H](O)[C@H]2O)nn1	5.87	5.77	6.15	5.83	6.47	5.57	0.95 µM	1.37 µM
